Results reported in patent US11415579B2, “Assay for measuring a rate of reaction between a target and a ligand candidate” (Imperial College Innovations Ltd., priority 2016, dated 2022).

How the values were obtained:
[1] = biological target: T1, human cyclin-dependent kinase 2 (Cdk2) (Homo sapiens, UniProt P24941); experiment: Kinetic thiol consumption assay with wild type Cdk2 (C177); type: binding; set-up: key to Rate enhancement, Cdk2 WT: k(Cdk2) divided by k(model thiol); Rate constant with Cdk2 (k(Cdk2)): unit not given here; conditions: for Rate constant with Cdk2 (k(Cdk2)): 500 μM ligand, 5 μM thiol, phosphate buffer pH 8; for Rate enhancement, Cdk2 WT: no additional mutations; for Rate constant with Cdk2 WT: Protein: Cdk2, cysteine position WT, in h^-1; for k(Cdk2)/k(Cdk2_mut) rate enhancement: model thiol Cdk2[C177A, F80C, K278C]; for k(Cdk2)/k(GSH) rate enhancement: model thiol glutathione
T1 construct: poly-histidine; made in house; host or cells: E. coli
In short: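 Rate constants came from first-order exponential decay fits of normalized fluorescence against time, with thiol (5 μM) in degassed pH 8 phosphate buffer containing 2% v/v TCEP beads and reads after 1 h at room temperature.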

[2] = biological target: T2, Cdk2(S276C) (C177A) (Homo sapiens, UniProt P24941, C177A/S276C); experiment: Kinetic thiol consumption assay with Cdk2 mutant S276C; type: binding; set-up: key to Rate enhancement, Cdk2 S276C: rate constant with Cdk2 ÷ rate constant with model thiol (fold); conditions: additional mutation C177A; for Rate constant with Cdk2 S276C: Protein: Cdk2, cysteine position S276C, in h^-1
T2 construct: poly-histidine; made in house; host or cells: E. coli
In short: (§1)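 5 μM thiol, degassed phosphate pH 8, 2% v/v immobilized TCEP beads; 1 h RT; fluorescence ex 380/em 470 nm; normalized vs DMSO/thiol-only; first-order exponential decay fit → rate constant; Cdk2 k / model-thiol k = rate enhancement per acrylamide.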

[3] = biological target: T3, Cdk2(C177A, F80C) (Homo sapiens, UniProt P24941, C177A/F80C); experiment: Kinetic thiol consumption assay with Cdk2 mutant F80C, incl. kobs versus concentration (Kd, k2); type: binding; set-up: key to Rate enhancement, Cdk2 F80C: Cdk2 rate constant divided by model-thiol rate constant; conditions: additional mutation C177A; for Rate constant with Cdk2 F80C: Protein: Cdk2, cysteine position F80C, in h^-1
T3 construct: poly-histidine; made in house; host or cells: E. coli
In short: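 His-tagged Cdk2(C177A/F80C) from E. coli or model thiol, 5 μM in degassed phosphate buffer pH 8 with TCEP beads, reacted with acrylamide ligands; fluorescence (ex/em 380/470 nm) normalized to DMSO control and fitted to first-order decay for kobs. Kd and k2 obtained from hyperbolic fit of kobs versus ligand concentration.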

[4] = biological target: T4, Cdk2(R122C) (C177A) (Homo sapiens, UniProt P24941, C177A/R122C); experiment: Kinetic thiol consumption assay with Cdk2 mutant R122C; type: binding; set-up: key to Rate enhancement, Cdk2 R122C: rate constant with Cdk2 ÷ rate constant with model thiol (fold); conditions: additional mutation C177A; for Rate constant with Cdk2 R122C: Protein: Cdk2, cysteine position R122C, in h-1
T4 construct: poly-histidine; made in house; host or cells: E. coli
In short: as §1

[5] = biological target: T5, Cdk2(N272C) (C177A) (Homo sapiens, UniProt P24941, C177A/N272C); experiment: Kinetic thiol consumption assay with Cdk2 mutant N272C; type: binding; set-up: key to Rate enhancement, Cdk2 N272: rate constant with Cdk2 ÷ rate constant with model thiol (fold); conditions: for Rate enhancement, Cdk2 N272: Cdk2 N272, additional mutation C177A; for Rate constant with Cdk2 N272C: Protein: Cdk2, cysteine position N272C, additional mutation C177A, in h^-1
T5 construct: poly-histidine; made in house; host or cells: E. coli
In short: as §1

[6] = Kinetic thiol consumption assay with model thiol glutathione; type: physicochemical; set-up: Rate constant with glutathione (k(GSH)): unit not given here; conditions: for Rate constant with glutathione (k(GSH)): 500 μM ligand, 5 μM thiol, phosphate buffer pH 8; for Rate constant with Glutathione: Protein: Glutathione, cysteine position NA, in h-1
In short: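 Rate constants for acrylamide reaction with 5 μM glutathione come from first-order exponential fits of normalized fluorescence decay (ex 380, em 470 nm). Reactions run in degassed phosphate buffer at pH 8 containing TCEP beads, room temperature.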

[7] = biological target: T6, Cdk2[C177A, F80C, K278C] (Homo sapiens, UniProt P24941, C177A/F80C/K278C); experiment: Kinetic thiol consumption assay with mutant Cdk2 as model thiol; type: binding; set-up: unit not given here; conditions: 500 μM ligand, 5 μM thiol, phosphate buffer pH 8
T6 construct: poly-histidine; made in house; host or cells: E. coli
In short: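 Model thiol: His-tagged human Cdk2 C177A/F80C/K278C (two engineered surface cysteines), E. coli-expressed, 5 μM in degassed phosphate buffer pH 8 with immobilized TCEP beads (2% v/v). Fluorescence (ex/em 380/470 nm) followed over time at room temperature, normalized to DMSO/thiol control. First-order decay fit gives rate constants.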

[8] = biological target: T7, Cdk2(H71C) (C177A) (Homo sapiens, UniProt P24941, C177A/H71C); experiment: Kinetic thiol consumption assay with Cdk2 mutant H71C; type: binding; set-up: key to Rate enhancement, Cdk2 H71C: rate constant with Cdk2 ÷ rate constant with model thiol (fold); conditions: additional mutation C177A; for Rate constant with Cdk2 H71C: Protein: Cdk2, cysteine position H71C, in h^-1
T7 construct: poly-histidine; made in house; host or cells: E. coli
In short: as §1

[9] = biological target: T8, Cdk2(S181C) (C177A) (Homo sapiens, UniProt P24941, C177A/S181C); experiment: Kinetic thiol consumption assay with Cdk2 mutant S181C; type: binding; set-up: key to Rate enhancement, Cdk2 S181C: rate constant with Cdk2 ÷ rate constant with model thiol (fold); conditions: additional mutation C177A; for Rate constant with Cdk2 S181C: Protein: Cdk2, cysteine position S181C, in h^-1
T8 construct: poly-histidine; made in house; host or cells: E. coli
In short: as §1

[10] = biological target: T9, Cdk2(T182C) (C177A) (Homo sapiens, UniProt P24941, C177A/T182C); experiment: Kinetic thiol consumption assay with Cdk2 mutant T182C; type: binding; set-up: key to Rate enhancement, Cdk2 T182C: rate constant with Cdk2 ÷ rate constant with model thiol (fold); conditions: additional mutation C177A; for Rate constant with Cdk2 T182C: Protein: Cdk2, cysteine position T182C, in h^-1
T9 construct: poly-histidine; made in house; host or cells: E. coli
In short: as §1

Row | Rate constant with Cdk2 (k(Cdk2)) [1] | Rate enhancement, Cdk2 WT [1] | Rate constant with Cdk2 WT [1] | k(Cdk2)/k(Cdk2_mut) rate enhancement [1] | k(Cdk2)/k(GSH) rate enhancement [1] | Rate enhancement, Cdk2 S276C [2] | Rate enhancement, Cdk2 F80C [3] | Rate constant with Cdk2 F80C [3] | Rate enhancement, Cdk2 R122C [4] | Rate constant with Cdk2 R122C [4] | Rate enhancement, Cdk2 N272 [5] | Rate constant with Cdk2 N272C [5] | Rate constant with Cdk2[C177A, F80C, K278C] (k(Cdk2_mut)) [7] | Rate enhancement, Cdk2 H71C [8] | Rate enhancement, Cdk2 S181C [9] | Rate constant with Cdk2 S181C [9] | Rate enhancement, Cdk2 T182C [10] | Rate constant with Cdk2 T182C [10] | SMILES | Rate constant with glutathione (k(GSH)) [6] | Rate constant with Glutathione [6] | other results
1 | 0.00693 | 0.3847 | 0.006933 | 2.693 | 0.5009 | 0 | 0.09517 | 0.001715 | 0.2386 | 0.0043 | 0.2507 | 0.004517 | 0.00257 | 0 | 0.1935 | 0.003487 | 0.5125 | 0.009235 | C=CC(=O)N1CCC2(CCCN(Cc3ccccc3)C2)C1 (centres unmarked) [CA-141] | 0.01384 | 0.01802 | –
2 | 0.00232 | 0.5437 | 0.003842 | 1.79 | 0.5547 | 0.1634 | 0 | – | 0.2488 | 0.001758 | 0.2158 | 0.001525 | 0.0013 | 0.5333 | 0 | – | 0.9382 | 0.00663 | C=CC(=O)NC1CC2CC1C1CCCC21 (centres unmarked) [CA-159] | 0.00418 | 0.007067 | Rate constant with Cdk2 S276C [2]: 0.001155; Rate constant with Cdk2 H71C [8]: 0.003769
3 | 0.04586 | 3.338 | 0.04586 | 0.5803 | 3.318 | 3.934 | 4.306 | 0.05916 | 3.287 | 0.04516 | 2.758 | 0.0379 | 0.07903 | 3.672 | 8.879 | 0.122 | 13.92 | 0.1913 | C=CC(=O)N1CC(OCc2cccc3ccccc23)C1 [CA-203] | 0.01382 | 0.01374 | Rate constant with Cdk2 S276C [2]: 0.05406; Rate constant with Cdk2 H71C [8]: 0.05046
